# Test results from patent US8822452B2, “Inhibitor compounds of 11-beta-hydroxysteroid dehydrogenase type 1” (Laboratorios Salvat, S.A., priority 2009, dated 2014).
# Several values for one entry are separate records, joined by “and”; a condition that tells them apart may be missing. Identical values can stand only once.
# Columns and labels:
# 11-beta-HSD1 = molecular target: T1, 11-beta-HSD1 (Homo sapiens, UniProt P28845); assay: Inhibitory activity of 11-beta-HSD1 in the microsomal fraction of transfected HEK293 cells (SPA, [3H]-cortisone); assay type: biochemical; conditions: microsomes of HEK-293 cells transfected with 11-beta-HSD1
# T1 construct: expressed in transfected cells; host or cells: HEK-293 cells, stably transfected; microsome preparation
# T1 sequence (P28845 whole entry): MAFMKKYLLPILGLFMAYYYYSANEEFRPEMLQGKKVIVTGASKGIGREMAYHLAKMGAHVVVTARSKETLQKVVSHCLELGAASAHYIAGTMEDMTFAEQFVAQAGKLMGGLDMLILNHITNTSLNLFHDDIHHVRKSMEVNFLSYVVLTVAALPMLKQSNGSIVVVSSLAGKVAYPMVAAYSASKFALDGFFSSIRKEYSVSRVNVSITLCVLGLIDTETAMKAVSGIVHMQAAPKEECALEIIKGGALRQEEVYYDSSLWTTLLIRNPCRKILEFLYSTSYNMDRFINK
# Method: Determination of the Inhibitory Activity of 11-Beta-HSD1 in the Microsomal Fraction of Transfected HEK293 Cells
# 99 μL of a reaction mixture which contained 80 nM [^3H]-cortisone, 1 mM NADPH and 40 μg/mL of the microsome preparations of HEK-293 cells stably transfected with the 11-beta-HSD1 clone, dissolved in assay buffer (50 mM HEPES, 100 mM KCl, 5 mM NaCl, 2 mM MgCl2/100 mL H2O) were added to a 96-well plate. The inhibitors to be analyzed were dissolved in 100% DMSO, and the final concentration in the reaction was 1%.
# The reaction mixture was incubated for 2 hours at 37° C. under stirring. The total reaction volume per well was 100 μL. The stop solution (5 mg/mL ProteinA Spa bead, Superblock Blocking Buffer, 30 μM glycyrrhetinic acid, 1 μg/mL anticortisol monoclonal antibody) was simultaneously prepared, being incubated under stirring for two hours at rt and protected from light. Once the two hours lapsed, 50 μL of the stop solution were dispensed to each well in the reaction plate and was left to incubate for two hours at rt under stirring and protected from light. Once the second incubation ended, the plate was read in a 1450 Microbeta Tritalux (Wallac®) scintillation counter for 30 seconds per well.
# 11-beta-HSD2 = molecular target: T2, 11-beta-HSD2 (Homo sapiens, UniProt P80365); assay: Inhibitory activity of 11-beta-HSD2 in the microsomal fraction of transfected HEK293 cells (SPA, [3H]-cortisol); assay type: biochemical; conditions: for inhibition at 10 µM: microsomes of HEK-293 cells transfected with 11-beta-HSD2
# T2 construct: expressed in transfected cells; host or cells: HEK-293 cells, stably transfected; microsome preparation
# T2 sequence (P80365 1-405): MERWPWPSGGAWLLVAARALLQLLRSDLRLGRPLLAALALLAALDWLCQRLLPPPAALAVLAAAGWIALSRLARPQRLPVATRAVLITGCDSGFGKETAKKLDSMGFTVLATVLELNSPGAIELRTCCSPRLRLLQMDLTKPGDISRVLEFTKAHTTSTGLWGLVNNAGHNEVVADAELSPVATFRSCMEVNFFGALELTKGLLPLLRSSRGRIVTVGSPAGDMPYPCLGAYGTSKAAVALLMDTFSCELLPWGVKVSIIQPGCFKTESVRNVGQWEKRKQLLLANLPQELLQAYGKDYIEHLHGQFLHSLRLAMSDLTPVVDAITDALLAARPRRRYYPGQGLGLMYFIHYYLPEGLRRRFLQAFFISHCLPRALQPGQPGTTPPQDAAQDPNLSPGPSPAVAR
# Method: Determination of the Inhibitory Activity of 11-Beta-HSD2 in the Microsomal Fraction of Transfected HEK293 Cells
# 59 μL of the reaction mixture were added to a 96-well plate. This contained 1 mM NAD^+ and 80 μg/mL of the microsome preparations of HEK-293 cells stably transfected with the 11-beta-HSD2 clone, dissolved in assay buffer (50 mM HEPES, 100 mM KCl, 5 mM NaCl, 2 mM MgCl2/100 mL H2O). The inhibitors to be analyzed were dissolved in 100% DMSO, and the final concentration in the reaction was 1%. The reaction mixture was pre-incubated for 30 minutes at 37° C. under stirring. 40 μL of the reaction substrate, 3.2 nM [^3H]-cortisol dissolved in assay buffer were added. It was incubated at 37° C. for two hours under stirring. The stop solution was simultaneously prepared, being incubated for two hours at rt and protected from light. After this time 50 μL of the stop solution were added to end the reaction, and it was incubated for two hours at rt under stirring and protected from light. The signal emitted by SPA beads-cortisol complex was measured in the 1450 Microbeta Tritalux (Wallac®) scintillation counter for 30 seconds per well. This case measures the binding to the substrate, and not to the product as in the assay for the type 1 isoenzyme.
# [1] = Acute glaucoma model: glucose-induced ocular hypertension in rabbit (IOP); assay type: in vivo, Chinchilla Bastard rabbits; conditions: for Glucose-induced Hypertension Ratio Inhibitor/Timolol: 0.5% suspension versus Timolol maleate solution 0.5%; for Glucose-induced Hypertension % Inhibition: eye instillation of 0.5% suspension 15 minutes before 5% glucose bolus 20 ml/kg
# Method: In Vivo Efficacy of 11beta-HSD1 Inhibitors
# In vivo efficacy of 11beta-HSD1 inhibitors was evaluated in an acute glaucoma model based on a glucose-induced ocular hypertension model in rabbit.
# Male Chinchilla Bastard rabbits (1.5-2.5 kg) were obtained from Charles River (Germany) and were kept under controlled environmental conditions (12-hour light/12-hour dark cycle) with food and drinking water ad libitum. Animals were treated in accordance with the ARVO Statement for the Use of Animals in Ophthalmic and Vision Research.
# In order to measure intraocular pressure (IOP) according to the glucose-induced ocular hypertension model, rabbits were restrained and basal IOP was determined using a Tonolab tonometer (Tiolat Oy) at least 1 hour after initial immobilization. Acute ocular hypertension was induced by a bolus of 5% glucose solution at 20 ml/kg into the marginal ear vein and IOP was determined 5, 10, 20, 30 and 40 minutes later. Eye treatment instillation was performed 15 minutes before the hypertension induction and both eyes of each animal were instilled with the same solution, either the vehicle, the 11beta-HSD1 inhibitor suspension at 0.5% or Timolol maleate solution at 0.5% as a positive control.
inhibition at 10 µM (11-beta-HSD1),inhibition at 10 µM (11-beta-HSD2),"% Inhibition (10 μM) 11-beta-HSD2 (11-beta-HSD2; microsomes of HEK-293 cells transfected with 11-beta-HSD2, 10 µM)",SMILES,Glucose-induced Hypertension Ratio Inhibitor/Timolol [1],Glucose-induced Hypertension % Inhibition [1]
100%,10%,,"O=C(CCCNC(=O)N1CCCC2CCCCC21)N1CCC2CCCCC2C1 (centres unmarked) [Ib.18, Octahydroquinoline-1-carboxylic acid [4-(octahydroisoquinolin-2-yl)-4-oxobutyl]amide]",,
100%,13%,,"CN(Cc1cccc2ccccc12)C(=O)CCCNC(=O)N1CCC2CCCCC2C1 (centres unmarked) [Ib.80, Octahydroisoquinoline-2-carboxylic acid [3-(methylnaphthalen-1-ylmethylcarbamoyl)propyl]amide]",,
100%,0%,,"O=C(NCCC(=O)N1CCCC2CCCCC21)c1cc2ccccc2cn1 (centres unmarked) [Id.6, Isoquinoline-3-carboxylic acid [3-(octahydroquinolin-1-yl)-3-oxopropyl]amide]",,
100%,0%,,"O=C(NCCC(=O)N1CCCC2CCCCC21)c1ccc2ccccc2n1 (centres unmarked) [Id.12, Quinoline-2-carboxylic acid[3-(octahydroquinolin-1-yl)-3-oxopropyl]amide]",0.87,50%
100%,6%,,"O=C1c2ccc(F)cc2C(=O)N1CCCCC(=O)N1CCCC2CCCCC21 (centres unmarked) [Ik.25, 5-fluoro-2-[5-(octahydroquinolin-1-yl)-5-oxopentyl]isoindole-1,3-dione]",,

# Further lines, the molecule ahead of its results:
SMILES,inhibition at 10 µM (11-beta-HSD1),inhibition at 10 µM (11-beta-HSD2),"% Inhibition (10 μM) 11-beta-HSD2 (11-beta-HSD2; microsomes of HEK-293 cells transfected with 11-beta-HSD2, 10 µM)",Glucose-induced Hypertension Ratio Inhibitor/Timolol [1],Glucose-induced Hypertension % Inhibition [1]
"O=C(CCCC(=O)N1CCCC2CCCCC21)NCCc1ccccc1 (centres unmarked) [Ia.59, 5-(octahydroquinolin-1-yl)-5-oxopentanoic acid phenethylamide]",100%,0%,,,
"O=C(CCCC(=O)N1CCCC2CCCCC21)NCc1ccccc1 (centres unmarked) [Ia.61, 5-(octahydroquinolin-1-yl)-5-oxopentanoic acid benzylamide]",93%,0%,,,
"CN(Cc1cccc2ccccc12)C(=O)CCCC(=O)N1CCCC2CCCCC21 (centres unmarked) [Ia.66, 5-(octahydroquinolin-1-yl)-5-oxopentanoic acid methylnaphthalen-1-ylmethylamide]",100%,6%,,,
"O=C(CCCCC(=O)N1CCCC2CCCCC21)NC1C2CC3CC(C2)CC1C3 (centres unmarked) [Ia.96, 6-(octahydroquinolin-1-yl)-6-oxohexanoic acid tricyclo[3.3.1.1^3,7]decan-2-ylamide]",,,,0.84,46%
"O=C(CCCC(=O)N1CCCC2CCCCC21)NCCc1cccc(F)c1 (centres unmarked) [Ia.198, 5-(octahydroquinolin-1-yl)-5-oxopentanoic acid N-(3-fluorophenethyl)amide]",,,,0.65,41%
"O=C(CCCC(=O)N1CCCC2CCCCC21)NC1CCCc2ccccc21 (centres unmarked) [Ia.224, 5-(octahydroquinolin-1-yl)-5-oxopentanoic acid N-(1,2,3,4-tetrahydronaphthalen-1-yl)amide]",,,,0.25,16%
"CN(Cc1cccc2ccccc12)C(=O)CCCNC(=O)N1CCCC2CCCCC21 (centres unmarked) [Ib.8, Octahydroquinoline-1-carboxylic acid [3-(methylnaphthalen-1-ylmethylcarbamoyl)propyl]amide]",100%,,0% and 5%,,
"O=C1c2ccccc2C(=O)N1CCCCC(=O)N1CCCC2CCCCC21 (centres unmarked) [If.1, 2-(5-(octahydroquinolin-1-yl)-5-oxopentyl)isoindoline-1,3-dione]",100%,0%,,0.90,51%
"O=C(CCCCN1C(=O)c2ccccc2C1=O)N1CCC2CCCCC2C1 (centres unmarked) [If.8, 2-(5-(octahydroisoquinolin-2-yl)-5-oxopentyl) isoindoline-1,3-dione]",100%,4%,,,
